Results taken from patent US11666600B2, “Methods for culturing and/or differentiating hematopoietic stem cells into progenitors and uses thereof” (HEMA-QUEBEC, priority 2015, dated 2023).

Columns and labels:
[1] = system: CD34+ cells from human umbilical cord blood; assay: CD34+ cell culture and expansion while limiting differentiation (StemSpan ACF + CC110), flow cytometry; format: cell-based
Experimental: CD34+ cells were isolated from human umbilical cord blood by positive selection according to standard procedures. Purified CD34+ cells from either single units or pooled from several units of cord blood were seeded in 1 mL of the appropriate culture medium in 24-well plates at a density of approximately 10^5 cells/mL. Cells were maintained at a density of 10^5-10^6 cells/mL throughout the culture by dilution and/or medium replacement.
For CD34+ cell culture and expansion while limiting differentiation, cells were grown in StemSpan™-ACF medium ([…]™ Technologies) supplemented with StemSpan™ CC110 cytokine cocktail ([…]™ Technologies), and counted on days 4, 7, 10, 14, 17, and 21.
Cell counts and viability were measured using the NucleoCounter NC-250™ Viability and Cell Count Assay system (ChemoMetec Inc., Davis, Calif.), according to the manufacturer's instructions.
Cell phenotypes were determined by flow cytometry on the indicated days using the following panel of labeled primary antibodies: CD34-FITC, CD45RA-APC, CD41a-APC, CD42b-PE, and CD235-PE.
CD34+ cells were isolated and cultured in a medium suitable for maintaining their self-renewal while limiting their differentiation into progenitors (StemSpan™ ACF supplemented with StemSpan™ CC110 cytokine cocktail, as described in Example 1.2).
Cell phenotypic profiles of the expanded CD34+ cells were determined on days 4, 7, 10, 14, 17, and 21 by flow cytometry as described in Example 1.3.

[2] = system: Human G-CSF-mobilized peripheral blood CD34+ cells; assay: Expansion of CD34+/CD41+ megakaryocytic progenitors from mobilized peripheral blood CD34+ cells; format: cell-based; settings: 39° C. + PIC 35 nM; 14 days; SFEM + BS1; FIG. 5
Experimental: Human bone marrow and G-CSF-mobilized peripheral blood CD34+ cells were purchased from AllCells.
Human CD34+-enriched cells (purity 90%) were seeded in 24-well plates at 100 000 cells/mL in expansion medium consisting of either (1) StemSpan™ ACF (ACF; […] Technologies) supplemented with the OMPC cytokine cocktail (Robert et al., 2011), or (2) StemSpan™ SFEM ([…] Technologies) supplemented with the BS1 megakaryocyte expansion and differentiation cocktail (Cortin et al., 2005). OMPC consists of 35 ng/mL thrombopoietin (TPO; Feldan Therapeutics), 10 ng/mL stem cell factor (SCF; Peprotech), and 11 ng/mL human FMS-like tyrosine kinase 3 ligand (FLT3, Peprotech). […]
Cellular counts and viability were determined by adding Solution 18 (Acridine Orange and DAPI solution, ChemomMetec) and using NucleoCounter™ NC-250 for detection (ChemomMetec).
For cells expanded in conditions favoring differentiation towards the MK lineage, surface markers were detected using the following antibodies: CD34-FITC, CD41a-APC and CD42b-PE. […] All samples were analyzed on an Accuri™ C6 flow cytometer (BD Biosciences), and raw data were analyzed with FCS Express 5 Flow Research Edition software from at least 15 000 viable cell events acquired for each sample. […]
Cellular counts and viability were determined as described in Example 6.5.

Cl.Cn1nnc(-c2ccc3c(c2)[nH]c2nc(Cc4ccccc4)nc(N[C@H]4CC[C@H](N)CC4)c23)n1 [PIC, (1r,4r)-N1-(2-benzyl-7-(2-methyl-2H-tetrazol-5-yl)-9H-pyrimido[4,5-b]indol-4-yl)cyclohexane-1,4-diamine hydrochloride]
expansion of CD34+/CD45RA− LT-HSCs ([1]; 39° C. + PIC 35 nM, FIG. 3B): potently enhanced
Percentage of cells bearing CD34+ ([1]; Day 4, 37° C. + PIC 35 nM): 97.91%
Percentage of cells bearing CD34+/CD41+ ([1]; Day 4, 37° C. + PIC 35 nM): 12.51%
Percentage of cells bearing CD34+/CD235+ ([1]; Day 4, 37° C. + PIC 35 nM): 4.83%
Percentage of cells bearing CD41+ ([1]; Day 4, 37° C. + PIC 35 nM): 12.53%
Percentage of cells bearing CD42+ ([1]; Day 4, 37° C. + PIC 35 nM): 1.08%
Percentage of cells bearing CD45RA+ ([1]; Day 4, 37° C. + PIC 35 nM): 65.34%
Percentage of cells bearing CD235+ ([1]; Day 4, 37° C. + PIC 35 nM): 4.87%
Percentage of cells bearing CD34+ ([1]; Day 4, 39° C. + PIC 35 nM): 94.74%
Percentage of cells bearing CD34+/CD41+ ([1]; Day 4, 39° C. + PIC 35 nM): 8.37%
Percentage of cells bearing CD34+/CD235+ ([1]; Day 4, 39° C. + PIC 35 nM): 3.65%
Percentage of cells bearing CD41+ ([1]; Day 4, 39° C. + PIC 35 nM): 9.05%
Percentage of cells bearing CD42+ ([1]; Day 4, 39° C. + PIC 35 nM): 2.21%
Percentage of cells bearing CD45RA+ ([1]; Day 4, 39° C. + PIC 35 nM): 57.92%
Percentage of cells bearing CD235+ ([1]; Day 4, 39° C. + PIC 35 nM): 4.11%
Percentage of cells bearing CD34+ ([1]; Day 7, 37° C. + PIC 35 nM): 94.61%
Percentage of cells bearing CD34+/CD41+ ([1]; Day 7, 37° C. + PIC 35 nM): 15.74%
Percentage of cells bearing CD34+/CD235+ ([1]; Day 7, 37° C. + PIC 35 nM): 5.28%
Percentage of cells bearing CD41+ ([1]; Day 7, 37° C. + PIC 35 nM): 15.93%
Percentage of cells bearing CD42+ ([1]; Day 7, 37° C. + PIC 35 nM): 1.30%
Percentage of cells bearing CD45RA+ ([1]; Day 7, 37° C. + PIC 35 nM): 80.07%
Percentage of cells bearing CD34+ ([1]; Day 7, 39° C. + PIC 35 nM): 88.27%
Percentage of cells bearing CD34+/CD41+ ([1]; Day 7, 39° C. + PIC 35 nM): 16.17%
Percentage of cells bearing CD34+/CD235+ ([1]; Day 7, 39° C. + PIC 35 nM): 9.68%
Percentage of cells bearing CD41+ ([1]; Day 7, 39° C. + PIC 35 nM): 18.12%
Percentage of cells bearing CD42+ ([1]; Day 7, 39° C. + PIC 35 nM): 2.92%
Percentage of cells bearing CD45RA+ ([1]; Day 7, 39° C. + PIC 35 nM): 74.14%
Percentage of cells bearing CD235+ ([1]; Day 7, 39° C. + PIC 35 nM): 10.89%
Percentage of cells bearing CD34+ ([1]; Day 10, 37° C. + PIC 35 nM): 84.26%
Percentage of cells bearing CD34+/CD41+ ([1]; Day 10, 37° C. + PIC 35 nM): 12.94%
Percentage of cells bearing CD34+/CD235+ ([1]; Day 10, 37° C. + PIC 35 nM): 2.16%
Percentage of cells bearing CD41+ ([1]; Day 10, 37° C. + PIC 35 nM): 14.19%
Percentage of cells bearing CD42+ ([1]; Day 10, 37° C. + PIC 35 nM): 0.48%
Percentage of cells bearing CD45RA+ ([1]; Day 10, 37° C. + PIC 35 nM): 88.37%
Percentage of cells bearing CD235+ ([1]; Day 10, 37° C. + PIC 35 nM): 2.33%
Percentage of cells bearing CD34+ ([1]; Day 10, 39° C. + PIC 35 nM): 71.28%
Percentage of cells bearing CD34+/CD41+ ([1]; Day 10, 39° C. + PIC 35 nM): 20.80%
Percentage of cells bearing CD34+/CD235+ ([1]; Day 10, 39° C. + PIC 35 nM): 7.94%
Percentage of cells bearing CD41+ ([1]; Day 10, 39° C. + PIC 35 nM): 27.40%
Percentage of cells bearing CD42+ ([1]; Day 10, 39° C. + PIC 35 nM): 1.35%
Percentage of cells bearing CD45RA+ ([1]; Day 10, 39° C. + PIC 35 nM): 82.34%
Percentage of cells bearing CD235+ ([1]; Day 10, 39° C. + PIC 35 nM): 9.36%
Percentage of cells bearing CD34+ ([1]; Day 14, 37° C. + PIC 35 nM): 58.28%
Percentage of cells bearing CD34+/CD41+ ([1]; Day 14, 37° C. + PIC 35 nM): 9.55%
Percentage of cells bearing CD34+/CD45RA− ([1]; Day 14, 37° C. + PIC 35 nM): 15.22%
Percentage of cells bearing CD34+/CD235+ ([1]; Day 14, 37° C. + PIC 35 nM): 1.39%
Percentage of cells bearing CD41+ ([1]; Day 14, 37° C. + PIC 35 nM): 15.16%
Percentage of cells bearing CD42+ ([1]; Day 14, 37° C. + PIC 35 nM): 0.19%
Percentage of cells bearing CD45RA+ ([1]; Day 14, 37° C. + PIC 35 nM): 84.63%
Percentage of cells bearing CD235+ ([1]; Day 14, 37° C. + PIC 35 nM): 2.10%
Percentage of cells bearing CD34+ ([1]; Day 14, 39° C. + PIC 35 nM): 48.58%
Percentage of cells bearing CD34+/CD41+ ([1]; Day 14, 39° C. + PIC 35 nM): 13.88%
Percentage of cells bearing CD34+/CD45RA− ([1]; Day 14, 39° C. + PIC 35 nM): 19.74%
Percentage of cells bearing CD34+/CD235+ ([1]; Day 14, 39° C. + PIC 35 nM): 3.72%
Percentage of cells bearing CD41+ ([1]; Day 14, 39° C. + PIC 35 nM): 32.04%
Percentage of cells bearing CD42+ ([1]; Day 14, 39° C. + PIC 35 nM): 1.16%
Percentage of cells bearing CD45RA+ ([1]; Day 14, 39° C. + PIC 35 nM): 81.97%
Percentage of cells bearing CD34+ ([1]; Day 17, 37° C. + PIC 35 nM): 48.29%
Percentage of cells bearing CD34+/CD41+ ([1]; Day 17, 37° C. + PIC 35 nM): 9.75%
Percentage of cells bearing CD34+/CD45RA− ([1]; Day 17, 37° C. + PIC 35 nM): 13.58%
Percentage of cells bearing CD34+/CD235+ ([1]; Day 17, 37° C. + PIC 35 nM): 0.52%
Percentage of cells bearing CD41+ ([1]; Day 17, 37° C. + PIC 35 nM): 24.70%
Percentage of cells bearing CD42+ ([1]; Day 17, 37° C. + PIC 35 nM): 0.63%
Percentage of cells bearing CD45RA+ ([1]; Day 17, 37° C. + PIC 35 nM): 87.89%
Percentage of cells bearing CD235+ ([1]; Day 17, 37° C. + PIC 35 nM): 3.94%
differentiation of the cells towards the megakaryocytic and erythroid (CD235+) lineages ([1]; combined mild hyperthermia (39° C.) and PIC 35 nM): did not lead to an enhanced differentiation
combined use of mild hyperthermia and PIC on expansion of CD34+/CD41+ cells [2]: synergistic effect
